# In patent US20240252488A1 (KOREA RESEARCH INSTITUTE OF CHEMICAL TECHNOLOGY, priority 2020, published 2024):
# Experiments:
# MLKL = target: T1, MLKL (Homo sapiens, UniProt Q8NB16); assay: Measurement of binding affinity with MLKL receptor (competitive binding assay, Kd); parameters: made in house; host or cells: HEK 293 cell line (T7 phage in E. coli BL21-derived host is also described)
# T1 sequence (Q8NB16 1-471): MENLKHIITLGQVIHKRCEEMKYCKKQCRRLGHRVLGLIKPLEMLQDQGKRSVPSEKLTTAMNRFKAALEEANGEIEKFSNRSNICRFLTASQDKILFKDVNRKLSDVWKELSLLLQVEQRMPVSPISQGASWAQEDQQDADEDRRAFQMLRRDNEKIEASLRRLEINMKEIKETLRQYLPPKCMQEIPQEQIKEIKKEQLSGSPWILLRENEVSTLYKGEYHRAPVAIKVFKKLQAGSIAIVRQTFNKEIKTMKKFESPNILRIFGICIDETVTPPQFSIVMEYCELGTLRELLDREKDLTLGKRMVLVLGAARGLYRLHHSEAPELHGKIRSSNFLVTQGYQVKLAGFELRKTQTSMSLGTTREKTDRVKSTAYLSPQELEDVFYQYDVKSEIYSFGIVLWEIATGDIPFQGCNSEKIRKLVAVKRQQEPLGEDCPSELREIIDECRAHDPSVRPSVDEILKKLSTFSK
# Method: Measurement of Binding Affinity with MLKL Receptor (Competitive Binding Assay)
# The binding affinity was evaluated by measuring the Kd value in the following method.
# To prepare kinase-tagged T7 phage strains in an E. coli host derived from the BL21 strain, E. coli were grown to log-phase and infected with T7 phage and incubated with shaking at 32° C. until lysis. The lysates were centrifuged and filtered to remove cell debris. For kinase production, it was expressed in human embryonic kidney cell line (HEK 293 cell line), and subsequently tagged with DNA for qPCR detection.
# The liganded beads were blocked with excess biotin and washed with blocking buffer (SeaBlock (Pierce), 1% BSA, 0.05% Tween 20, 1 mM DTT) to remove unbound ligand and to reduce non-specific binding. […] Test compounds were prepared as 111× stocks in 100% DMSO.
# The compounds were then diluted directly into the assays such that the final concentration of DMSO was 0.9%. All reactions performed in polypropylene 384-well plate. Each was a final volume of 0.02 ml. […] The kinase concentration in the eluates was measured by qPCR.
# FADD−/− Jurkat cells = assay: Necroptosis inhibition assay, TNF-α-induced necroptosis (CellTiter-Glo 2.0); assay type: cell-based, human; conditions: TNF-α 15 ng/mL; for Necroptosis inhibition assay (Rescue %) 10 μM: compound 10 μM; for Necroptosis inhibition assay (Rescue %) 1 μM: compound 1 μM
# Method: Necroptosis Inhibition Assay
# Necroptosis inhibition was evaluated by the following method.
# 80 μL of FADD gene-defective human T lymphocyte cells (FADD−/− Jurkat cells) were equally distributed into each well at 5.0×10^5 cells/mL in a white 96-well plate with a transparent bottom. 20 μL of the medium containing test compound was treated in each well so that the final concentration of the compound was 0.1, 1, and 10 μM, and reacted at room temperature for 30 minutes. After the 30-minute reaction was over, TNF (tumor necrosis factor)-α was treated in the corresponding well so that the final concentration of TNF-α was 15 ng/mL in order to induce necroptosis. It was cultured in a 5% CO2, 37° C. incubator for 20 to 24 hours.
# After incubation, the 96-well plate was left at room temperature for 30 minutes. After 30 minutes, Promega's CellTiter-Glo 2.0 reagent was diluted 1:3 with PBS and 100 μL of the diluted solution was added to each well to confirm cell viability by measuring the amount of ATP. After the treatment, the plate was shielded from light and incubated at room temperature for 2 minutes with orbital shaking, and then left at room temperature for 10 minutes without shaking. After measuring the luminescence at 0.5 seconds per well using a plate scanner, the cytotoxicity and necroptosis inhibition rate for the compound were calculated using the measured values.
Kd (MLKL) [µM],Structure (SMILES),Necroptosis inhibition assay (Rescue %) 10 μM (FADD−/− Jurkat cells) [%],Necroptosis inhibition assay (Rescue %) 1 μM (FADD−/− Jurkat cells) [%]
0.045,"Nc1ncc(C2=CCN(C(=O)CCCCCNC(=O)CNc3cccc4c3C(=O)N(C3CCC(=O)NC3=O)C4=O)CC2)cc1C(=O)O[C@@H](C(=O)Nc1ccc(F)cc1)c1ccccc1 (stereo partly drawn) [TDH-079, (R)-2-((4-fluorophenyl)amino)-2-oxo-1-phenylethyl 6-amino-1′-(6-(2-((2-(2,6-dioxopiperidin-3-yl)-1,3-dioxoisoindolin-4-yl)amino)acetamido)hexanoyl)-1′,2′,3′,6′-tetrahydro-[3,4′-bipyridine]-5-carboxylate]",0.94,–
0.05,"Nc1ncc(C2=CCN(C(=O)CCCCCNC(=O)COc3cccc4c3C(=O)N(C3CCC(=O)NC3=O)C4=O)CC2)cc1C(=O)O[C@@H](C(=O)Nc1ccc(F)cc1)c1ccccc1 (stereo partly drawn) [TDH-081, (R)-2-((4-fluorophenyl)amino)-2-oxo-1-phenylethyl 6-amino-1′-(6-(2-((2-(2,6-dioxopiperidin-3-yl)-1,3-dioxoisoindolin-4-yl)oxy)acetamido)hexanoyl)-1′,2′,3′,6′-tetrahydro-[3,4′-bipyridine]-5-carboxylate]",–,6.8
0.019,"Nc1ncc(C2=CCN(C(=O)COCCOCCNC(=O)CNc3cccc4c3C(=O)N(C3CCC(=O)NC3=O)C4=O)CC2)cc1C(=O)O[C@@H](C(=O)Nc1ccc(F)cc1)c1ccccc1 (stereo partly drawn) [TDH-084, (R)-2-((4-fluorophenyl)amino)-2-oxo-1-phenylethyl 6-amino-1′-(2-(2-(2-(2-((2-(2,6-dioxopiperidin-3-yl)-1,3-dioxoisoindolin-4-yl)amino)acetamido)ethoxy)ethoxy)acetyl)-1′,2′,3′,6′-tetrahydro-[3,4′-bipyridine]-5-carboxylate]",3.95,14.91
0.012,"Nc1ncc(C2=CCN(C(=O)COCCOCCNC(=O)CNc3ccc4c(c3)C(=O)N(C3CCC(=O)NC3=O)C4=O)CC2)cc1C(=O)O[C@@H](C(=O)Nc1ccc(F)cc1)c1ccccc1 (stereo partly drawn) [TDH-085, (R)-2-((4-fluorophenyl)amino)-2-oxo-1-phenylethyl 6-amino-1′-(2-(2-(2-(2-((2-(2,6-dioxopiperidin-3-yl)-1,3-dioxoisoindolin-5-yl)amino)acetamido)ethoxy)ethoxy)acetyl)-1′,2′,3′,6′-tetrahydro-[3,4′-bipyridine]-5-carboxylate]",–,5.02
0.041,"Nc1ncc(C2=CCN(C(=O)COCCOCCNC(=O)C3CN(c4cccc5c4C(=O)N(C4CCC(=O)NC4=O)C5=O)C3)CC2)cc1C(=O)O[C@@H](C(=O)Nc1ccc(F)cc1)c1ccccc1 (stereo partly drawn) [TDH-086, (R)-2-((4-fluorophenyl)amino)-2-oxo-1-phenylethyl 6-amino-1′-(2-(2-(2-(1-(2-(2,6-dioxopiperidin-3-yl)-1,3-dioxoisoindolin-4-yl)azetidine-3-carboxamido)ethoxy)ethoxy)acetyl)-1′,2′, 3′,6′-tetrahydro-[3,4′-bipyridine]-5-carboxylate]",–,2.91
0.033,"Nc1ncc(C2=CCN(C(=O)COCCOCCNC(=O)C3CCN(c4cccc5c4C(=O)N(C4CCC(=O)NC4=O)C5=O)CC3)CC2)cc1C(=O)O[C@@H](C(=O)Nc1ccc(F)cc1)c1ccccc1 (stereo partly drawn) [TDH-088, (R)-2-((4-fluorophenyl)amino)-2-oxo-1-phenylethyl 6-amino-1′-(2-(2-(2-(1-(2-(2,6-dioxopiperidin-3-yl)-1,3-dioxoisoindolin-4-yl)piperidine-4-carboxamido)ethoxy)ethoxy)acetyl)-1′,2′,3′,6′-tetrahydro-[3,4′-bipyridine]-5-carboxylate]",–,4.62
0.12,"Nc1ncc(C2=CCN(C(=O)CCCCCNC(=O)C3CN(c4ccc5c(c4)C(=O)N(C4CCC(=O)NC4=O)C5=O)C3)CC2)cc1C(=O)O[C@@H](C(=O)Nc1ccc(F)cc1)c1ccccc1 (stereo partly drawn) [TDH-092, (R)-2-((4-fluorophenyl)amino)-2-oxo-1-phenylethyl 6-amino-1′-(6-(1-(2-(2,6-dioxopiperidin-3-yl)-1,3-dioxoisoindolin-5-yl)azetidine-3-carboxamido)hexanoyl)-1′,2′,3′,6′-tetrahydro-[3,4′-bipyridine]-5-carboxylate]",–,2.1
0.2,"CC(C)(C)OC(=O)N1CCC(n2cc(-c3cnc(N)c(C(=O)N[C@@H](C(=O)Nc4ccc(F)cc4)c4ccccc4)n3)cn2)CC1 [TDH-098, tert-butyl (R)-4-(4-(5-amino-6-((2-((4-fluorophenyl)amino)-2-oxo-1-phenylethyl)carbamoyl)pyrazin-2-yl)-1H-pyrazol-1-yl)piperidine-1-carboxylate]",–,3.54
0.011,"Cl.Nc1ncc(-c2cnn(C3CCNCC3)c2)nc1C(=O)N[C@@H](C(=O)Nc1ccc(F)cc1)c1ccccc1 [TDH-099, (R)-3-amino-N-(2-((4-fluorophenyl)amino)-2-oxo-1-phenylethyl)-6-(1-(piperidin-4-yl)-1H-pyrazol-4-yl)pyrazine-2-carboxamide hydrochloride]",–,18.18
0.56,"Nc1ncc(C2=CCN(CCOCCOCCNC(=O)CNc3ccc4c(c3)C(=O)N(C3CCC(=O)NC3=O)C4=O)CC2)nc1C(=O)O[C@@H](C(=O)Nc1ccc(F)cc1)c1ccccc1 (stereo partly drawn) [TDH-107, (R)-2-((4-fluorophenyl)amino)-2-oxo-1-phenylethyl 3-amino-6-(1-(2-(2-(2-(2-((2-(2,6-dioxopiperidin-3-yl)-1,3-dioxoisoindolin-5-yl)amino)acetamido)ethoxy)ethoxy)ethyl)-1,2,3,6-tetrahydropyridin-4-yl)pyrazine-2-carboxylate]",50.16,24.34
0.002,"Cl.Nc1ncc(-c2cnn(C3CCNCC3)c2)cc1C(=O)O[C@@H](C(=O)Nc1ccc(F)cc1)c1ccccc1 [TDH-112, (R)-2-((4-fluorophenyl)amino)-2-oxo-1-phenylethyl 2-amino-5-(1-(piperidin-4-yl)-1H-pyrazol-4-yl)nicotinate hydrochloride]",–,20.24
0.002,"Nc1ncc(-c2cnn(C3CCN(CCOCCOCCNC(=O)C4CN(c5ccc6c(c5)C(=O)N(C5CCC(=O)NC5=O)C6=O)C4)CC3)c2)nc1C(=O)O[C@@H](C(=O)Nc1ccc(F)cc1)c1ccccc1 (stereo partly drawn) [TDH-116, (R)-2-((4-fluorophenyl)amino)-2-oxo-1-phenylethyl 3-amino-6-(1-(1-(2-(2-(2-(1-(2-(2,6-dioxopiperidin-3-yl)-1,3-dioxoisoindolin-5-yl)azetidine-3-carboxamido)ethoxy)ethoxy)ethyl)piperidin-4-yl)-1H-pyrazol-4-yl)pyrazine-2-carboxylate]",42.8,16.8
0.0017,"Nc1ncc(-c2cnn(C3CCN(CCCCCCNc4ccc5c(c4)C(=O)N(C4CCC(=O)NC4=O)C5=O)CC3)c2)nc1C(=O)O[C@@H](C(=O)Nc1ccc(F)cc1)c1ccccc1 (stereo partly drawn) [TDH-120, (R)-2-((4-fluorophenyl)amino)-2-oxo-1-phenylethyl 3-amino-6-(1-(1-(6-((2-(2,6-dioxopiperidin-3-yl)-1,3-dioxoisoindolin-5-yl)amino)hexyl)piperidin-4-yl)-1H-pyrazol-4-yl)pyrazine-2-carboxylate]",–,10.65
